According to patent US20210115044A1, “TRICYCLIC HETEROCYCLE COMPOUNDS USEFUL AS HIV INTEGRASE INHIBITORS” (Merck Sharp & Dohme Corp., priority 2018, published 2021):
Read-outs that look alike come from different tables or passages of the source.

Tested on: HIV-1 (H9/IIIB strain)
Experiment: Multiple round HIV-1 infection assay in MT4-GFP cells (wild type cell assay, Viking)
Type: cell-based
Details: MT4-GFP cells infected with HIV-1 H9/IIIB, inhibition of reproductive ratio R0, ~48 h and ~72 h post-infection
Method: The antiviral activity of the Examples herein was assessed in an assay that measures the rate of replication of HIV in cell culture, and performed according to the following procedure. HIV-1 replication was monitored using MT4-gag-GFP clone D3 (hereafter designated MT4-GFP), which are MT-4 cells modified to harbor a GFP reporter gene, the expression of which is dependent on the HIV-1 expressed proteins tat and rev. Productive infection of an MT4-GFP cell with HIV-1 results in GFP expression approximately 24 h post-infection. MT4-GFP cells were maintained at 37° C./5% CO2/90% relative humidity in RPMI 1640 supplemented with 10% fetal bovine serum, 100 U/ml penicillin/streptomycin, and 400 μg/ml G418 to maintain the reporter gene. For infections, MT4-GFP cells were placed in the same medium lacking G418 and infected overnight with HIV-1 (H9/IIIB strain) virus at an approximate multiplicity of infection of 0.01 in the same incubation conditions. Cells were then washed and re-suspended in either RPMI 1640 at 2×10^5 cells/mL (0% NHS condition) or 100% normal human serum (NHS) at 2×10^5 cells/mL (100% NHS condition). Compound plates were prepared by dispensing compounds dissolved in DMSO into wells of 384 well poly-D-lysine-coated plates (0.2 μl/well) using an ECHO acoustic dispenser. Each compound was tested in a 10-point serial 3-fold dilution (typical final concentrations: 1050 nM-0.05 nM for 0% NHS condition or 42 μM-2.13 nM for 100% NHS condition). Controls included no inhibitor (DMSO only) and a combination of three antiviral agents (efavirenz, indinavir, an in-house integrase strand transfer inhibitor at final concentrations of 4 μM each). Cells were added ([…]) to compound plates and the infected cells were maintained at 37° C./5% CO2/90% relative humidity.
Infected cells were quantified at two time points, ˜48 h and ˜72 h post-infection, by counting the number of green cells in each well using an Acumen eX3 scanner. The increase in the number of green cells over ˜24 h period gives the reproductive ratio, R0, which is typically 5-15 and has been shown experimentally to be in logarithmic phase (data not shown). Inhibition of R0 is calculated for each well, and IC50s determined by non-linear 4-parameter curve fitting.

[1] = 0% NHS condition (RPMI 1640), read-out: WILD TYPE CELL ASSAY Viking IP (0% NHS)
[2] = 100% normal human serum condition, read-out: WILD TYPE CELL ASSAY Viking IP (100% NHS)
[3] = Human immunodeficiency virus 1, IIIB, 0% NHS condition (RPMI 1640), read-out: WILD TYPE CELL ASSAY Viking IP (0% NHS)
[4] = Human immunodeficiency virus 1, IIIB, 100% normal human serum condition, read-out: WILD TYPE CELL ASSAY Viking IP (100% NHS)

IC50 [3]	SMILES	IC50 [1]	IC50 [2]	IC50 [4]
	CC1C(O)c2c(C(=O)NCc3ccc(F)cc3F)c(=O)c(O)c3n2C1(C)CN(C)C3=O (single isomer, unassigned) [Compound 73]	0.0023 µM	0.387 µM	
	CN1CC2(C)CC(O)c3c(C(=O)NCc4c(F)cc(F)cc4F)c(=O)c(O)c(n32)C1=O (stereo not shown) [Compound 28]	0.001 µM	0.129 µM	
0.0021 µM	CN1CC2(C)CC(O)c3c(C(=O)NCc4cccc(Cl)c4F)c(=O)c(O)c(n32)C1=O (stereo not shown) [Compound 35]			0.116 µM
	CC1C(O)c2c(C(=O)NCc3ccc(F)cc3F)c(=O)c(O)c3n2C1(C)CN(C)C3=O (single isomer, unassigned) [Compound 77]	0.0033 µM	4.47 µM	
0.0014 µM	CN1CC2(C)CC(O)c3c(C(=O)NCc4c(F)cc(F)cc4F)c(=O)c(O)c(n32)C1=O (single isomer, unassigned) [Compound 25]		1.7 µM	
	CC1N(C)C(=O)c2c(O)c(=O)c(C(=O)NCc3ccc(F)cc3F)c3n2C1(C)CC3O (single isomer, unassigned) [Compound 69]	0.0019 µM	0.0775 µM	
0.003 µM	CN1CC2(C)CC(O)c3c(C(=O)NCc4cccc(Cl)c4F)c(=O)c(O)c(n32)C1=O (single isomer, unassigned) [Compound 33]		1.21 µM	
0.0023 µM	CCN1CC2(COC)CC(O)c3c(C(=O)NCc4c(F)cc(F)cc4F)c(=O)c(O)c(n32)C1=O (single isomer, unassigned) [Compound 61]			0.0959 µM
	CCC12CC(O)c3c(C(=O)NCc4c(F)ccc(F)c4F)c(=O)c(O)c(n31)C(=O)N(C)C2 (stereo not shown) [Compound 52]	0.0027 µM	0.15 µM	
	CCN1CC2(COC)CC(O)c3c(C(=O)NCc4c(F)cc(F)cc4F)c(=O)c(O)c(n32)C1=O (stereo not shown) [Compound 64]	0.0029 µM	2.74 µM	
	CN1CC2(C)CC(O)c3c(C(=O)NCc4c(F)cc(F)cc4F)c(=O)c(O)c(n32)C1=O (single isomer, unassigned) [Compound 26]	0.0021 µM	0.107 µM	
	CCN1CC2(COC)CC(O)c3c(C(=O)NCc4ccc(F)cc4F)c(=O)c(O)c(n32)C1=O (single isomer, unassigned) [Compound 59]	0.0032 µM	0.106 µM	
0.0011 µM	CCC12CC(O)c3c(C(=O)NCc4c(F)cc(F)cc4F)c(=O)c(O)c(n31)C(=O)N(C)C2 (single isomer, unassigned) [Compound 45]		0.0179 µM	
	CCN1CC2(CCOC(F)F)CC(O)c3c(C(=O)NCc4ccc(F)cc4F)c(=O)c(O)c(n32)C1=O (single isomer, unassigned) [Compound 1]	0.0076 µM	0.237 µM	
	CCC12CC(O)c3c(C(=O)NCc4ccc(F)cc4F)c(=O)c(O)c(n31)C(=O)N(C)C2 (single isomer, unassigned) [Compound 40]	0.0019 µM	0.0391 µM	
	CCN1CC2(COC)CC(O)c3c(C(=O)NCc4c(F)cc(F)cc4F)c(=O)c(O)c(n32)C1=O (single isomer, unassigned) [Compound 62]	0.0024 µM	0.0605 µM	
0.0019 µM	CN1CC2(C)CC(O)c3c(C(=O)NCc4c(F)ccc(Cl)c4F)c(=O)c(O)c(n32)C1=O (single isomer, unassigned) [Compound 29]		3.13 µM	
0.0026 µM	CCC12CC(O)c3c(C(=O)NCc4c(F)ccc(F)c4F)c(=O)c(O)c(n31)C(=O)N(C)C2 (single isomer, unassigned) [Compound 49]		1.02 µM	
	CC1N(C)C(=O)c2c(O)c(=O)c(C(=O)NCc3ccc(F)cc3F)c3n2C1(C)CC3O (single isomer, unassigned) [Compound 70]	0.0012 µM	0.0263 µM	
0.0037 µM	CN1CC2(C)CC(O)c3c(C(=O)NCc4ccc(F)cc4)c(=O)c(O)c(n32)C1=O (single isomer, unassigned) [Compound 21]		0.927 µM	
	CCC12CC(O)c3c(C(=O)NCc4ccc(F)cc4F)c(=O)c(O)c(n31)C(=O)N(C)C2 (single isomer, unassigned) [Compound 39]	0.0021 µM	0.322 µM	

IC50 [3]	SMILES	IC50 [1]	IC50 [2]	IC50 [4]
	CCC12CC(O)c3c(C(=O)NCc4cccc(Cl)c4F)c(=O)c(O)c(n31)C(=O)N(C)C2 (single isomer, unassigned) [Compound 42]	0.0028 µM	0.0593 µM	
0.0019 µM	CN1CC2(C)CC(O)c3c(C(=O)NCc4ccc(F)cc4)c(=O)c(O)c(n32)C1=O (stereo not shown) [Compound 23]			0.121 µM
	CCN1CC2(COC)CC(O)c3c(C(=O)NCc4ccc(F)cc4F)c(=O)c(O)c(n32)C1=O (single isomer, unassigned) [Compound 57]	0.0031 µM	9.97 µM	
	CCN1CC2(COC)CC(O)c3c(C(=O)NCc4ccc(F)cc4F)c(=O)c(O)c(n32)C1=O (single isomer, unassigned) [Compound 58]	0.0023 µM	0.27 µM	
	CC1N(C)C(=O)c2c(O)c(=O)c(C(=O)NCc3ccc(F)cc3F)c3n2C1(C)CC3O (single isomer, unassigned) [Compound 71]	0.0031 µM	0.0911 µM	
	CCN1CC2(COC)CC(O)c3c(C(=O)NCc4ccc(F)cc4F)c(=O)c(O)c(n32)C1=O (single isomer, unassigned) [Compound 60]	0.0071 µM	1.26 µM	
	CCC12CC(O)c3c(C(=O)NCc4c(F)cc(F)cc4F)c(=O)c(O)c(n31)C(=O)N(C)C2 (stereo not shown) [Compound 48]	0.0021 µM	0.261 µM	
	CCC12CC(O)c3c(C(=O)NCc4ccc(F)cc4F)c(=O)c(O)c(n31)C(=O)N(C)C2 (single isomer, unassigned) [Compound 37]	0.0022 µM	0.547 µM	
	CC1C(O)c2c(C(=O)NCc3ccc(F)cc3F)c(=O)c(O)c3n2C1(C)CN(C)C3=O (single isomer, unassigned) [Compound 80]	0.0028 µM	0.192 µM	
0.0029 µM	CCN1CC2(COC)CC(O)c3c(C(=O)NCc4c(F)cc(F)cc4F)c(=O)c(O)c(n32)C1=O (stereo not shown) [Compound 63]		9.3 µM	
0.0026 µM	CCC12CC(O)c3c(C(=O)NCc4c(F)ccc(Cl)c4F)c(=O)c(O)c(n31)C(=O)N(C)C2 (single isomer, unassigned) [Compound 53]		4.37 µM	
0.0023 µM	CCC12CC(O)c3c(C(=O)NCc4c(F)cc(F)cc4F)c(=O)c(O)c(n31)C(=O)N(C)C2 (stereo not shown) [Compound 47]		1.46 µM	
	CCC12CC(O)c3c(C(=O)NCc4c(F)ccc(F)c4F)c(=O)c(O)c(n31)C(=O)N(C)C2 (single isomer, unassigned) [Compound 50]	0.0029 µM	0.0255 µM	
	CC1C(O)c2c(C(=O)NCc3ccc(F)cc3F)c(=O)c(O)c3n2C1(C)CN(C)C3=O (single isomer, unassigned) [Compound 74]	0.0016 µM	0.0384 µM	
	CCC12CC(O)c3c(C(=O)NCc4c(F)ccc(Cl)c4F)c(=O)c(O)c(n31)C(=O)N(C)C2 (single isomer, unassigned) [Compound 54]	0.0028 µM	0.0295 µM	
	CC1N(C)C(=O)c2c(O)c(=O)c(C(=O)NCc3ccc(F)cc3F)c3n2C1(C)CC3O (single isomer, unassigned) [Compound 67]	0.0023 µM	0.0828 µM	
	CCC12CC(O)c3c(C(=O)NCc4cccc(Cl)c4F)c(=O)c(O)c(n31)C(=O)N(C)C2 (single isomer, unassigned) [Compound 43]	0.0037 µM	1.27 µM	
	CN1CC2(C)CC(O)c3c(C(=O)NCc4c(F)ccc(Cl)c4F)c(=O)c(O)c(n32)C1=O (single isomer, unassigned) [Compound 30]	0.0021 µM	0.41 µM	
	CC1C(O)c2c(C(=O)NCc3ccc(F)cc3F)c(=O)c(O)c3n2C1(C)CN(C)C3=O (single isomer, unassigned) [Compound 79]	0.0045 µM	0.942 µM	
	CN1CC2(C)CC(O)c3c(C(=O)NCc4ccc(F)cc4)c(=O)c(O)c(n32)C1=O (single isomer, unassigned) [Compound 22]	0.003 µM	0.227 µM	
